Patent publication US8530382B2, “Anthranilic diamide compositions for propagule coating” (E I du Pont de Nemours and Company, priority 2009, dated 2013)

Assays:
[1] = tested on: 2nd instar larvae of Spodoptera frugiperda; experiment: Laboratory test, 2nd instar larvae of Spodoptera frugiperda on treated soybean leaves; format: in vivo; conditions: within 96 h
[2] = tested on: 2nd instar larvae of Spodoptera frugiperda; experiment: Laboratory test, 2nd instar larvae of Spodoptera frugiperda on maize leaves; format: in vivo; conditions: within 72 h

| SMILES | Concentration needed to achieve 50% mortality, relative to the concentration of Compound 2 [1] | Concentration in leaf tissue needed to achieve 100% mortality [2] | Concentration in leaf tissue resulting in 50% mortality [2] |
| --- | --- | --- | --- |
| CNC(=O)c1cc(C#N)cc(C)c1NC(=O)c1cc(Br)nn1-c1ncccc1Cl [Compound 1, 3-bromo-1-(3-chloro-2-pyridinyl)-N-[4-cyano-2-methyl-6-[(methylamino)carbonyl]phenyl]-1H-pyrazole-5-carboxamide] | 4-5 times greater | – | – |
| CNC(=O)c1cc(Cl)cc(C)c1NC(=O)c1cc(Br)nn1-c1ncccc1Cl [Compound 2, 3-bromo-N-[4-chloro-2-methyl-6-[(methylamino)carbonyl]phenyl]-1-(3-chloro-2-pyridinyl)-1H-pyrazole-5-carboxamide] | – | 0.037 μg per g of tissue | 0.033 μg per g of leaf tissue |
